Experimental data taken from paper PMC10261104, “Regioselective stilbene O-methylations in Saccharinae grasses” (Nature Communications, 2023).
One block for each compound: values may come before it.

Key:
[1] = target: T1, SbSOMT (stilbene O-methyltransferase) (Sorghum bicolor, UniProt A0A1B6PFV1); assay: ITC; assay type: binding
T1 construct: gene SORBI_3007G059100; residues 2–377

[2] = target: T2, SbCOMT (caffeic acid O-methyltransferase) (Sorghum bicolor, UniProt C5YH12); assay: ITC; assay type: binding
T2 construct: gene SORBI_3007G047300; residues 2–362
T2 sequence (C5YH12 2-362): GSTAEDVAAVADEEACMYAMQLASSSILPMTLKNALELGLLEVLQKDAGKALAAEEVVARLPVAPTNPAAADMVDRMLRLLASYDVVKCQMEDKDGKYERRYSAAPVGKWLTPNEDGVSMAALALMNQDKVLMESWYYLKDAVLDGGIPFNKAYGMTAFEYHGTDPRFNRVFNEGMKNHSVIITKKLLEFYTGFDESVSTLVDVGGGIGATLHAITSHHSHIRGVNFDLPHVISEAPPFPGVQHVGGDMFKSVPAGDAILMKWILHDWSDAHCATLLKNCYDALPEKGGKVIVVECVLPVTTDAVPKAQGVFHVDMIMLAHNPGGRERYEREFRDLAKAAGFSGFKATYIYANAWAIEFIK

[3] = target: T2, SbCOMT (caffeic acid O-methyltransferase); assay: ITC; […]ʹ-O-methylation enzyme assay; assay type: binding
[4] = target: T2, SbCOMT (caffeic acid O-methyltransferase); assay: ITC; enzyme kinetics (Km […]); assay type: binding
[5] = target: T1, SbSOMT (stilbene O-methyltransferase); assay: ITC; X-ray crystal structure ([…] Å, ternary complex); enzyme kinetics (Km […]); assay type: binding
[6] = target: T1, SbSOMT (stilbene O-methyltransferase); assay: ITC; X-ray crystal structure ([…] Å, ternary complex); assay type: binding
[7] = target: T1, SbSOMT (stilbene O-methyltransferase); assay: ITC; X-ray crystal structures (binary, and ternary with β-NAD at […] Å); methylation assay; assay type: binding
[8] = target: Sorghum bicolor stilbene O-methyltransferase (SbSOMT) (Sorghum bicolor); assay: crystal structure; SbSOMT co-crystallised with resveratrol, pinostilbene or pterostilbene, with or without β-NAD; sitting drop vapor diffusion, 18 °C

T1 sequence (A0A1B6PFV1 2-377): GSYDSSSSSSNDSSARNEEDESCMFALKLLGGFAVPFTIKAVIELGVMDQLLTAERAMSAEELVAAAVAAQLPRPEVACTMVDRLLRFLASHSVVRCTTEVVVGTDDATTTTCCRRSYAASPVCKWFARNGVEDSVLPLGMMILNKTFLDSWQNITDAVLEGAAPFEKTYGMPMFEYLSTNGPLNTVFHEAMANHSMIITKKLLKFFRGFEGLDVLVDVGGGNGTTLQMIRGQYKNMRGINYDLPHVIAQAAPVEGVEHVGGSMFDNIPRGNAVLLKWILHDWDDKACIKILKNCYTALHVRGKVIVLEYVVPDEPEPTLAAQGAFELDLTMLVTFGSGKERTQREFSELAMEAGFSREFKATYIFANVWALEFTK

Kd [1]: 90 µM
Kd ([2]; read-out: SbCOMT): 13 µM
Compound: C[S+](CC[C@H](N)C(=O)[O-])C[C@H]1O[C@@H](n2cnc3c(N)ncnc32)[C@H](O)[C@@H]1O (stereo partly shown) [SAM]

Compound: Oc1cc(O)cc(/C=C/c2ccc(O)c(O)c2)c1 [piceatannol]
Kd [3]: 1.26 µM

Compound: COc1cc(O)cc(/C=C/c2ccc(O)cc2)c1 [pinostilbene]
Kd [4]: 1.79 µM
Kd [5]: 2.86 µM

Kd [6]: 11.2 µM
Kd ([2]; read-out: SbCOMT): 3.99 µM
Compound: COc1cc(/C=C/c2ccc(O)cc2)cc(OC)c1 [pterostilbene]

Compound: Oc1ccc(/C=C/c2cc(O)cc(O)c2)cc1 [resveratrol]
Kd [7]: 4.69 µM
Kd [2]: 1.55 µM

stoichiometry N [8]: 2
Compound: Sorghum bicolor stilbene O-methyltransferase (SbSOMT) (enzyme)
